Test system: Musca domestica
Settings: female Musca domestica imagoes of a sensitive strain; oral, 1 μL of 50 ppm liquid composition in 5% granulated sugar solution (0.05 μg clothianidin); after 24 hours
Procedure: Insecticidal test by oral administration to Musca domestica
A clothianidin solution in alcohol was diluted with 5% granulated sugar solution to prepare a 50 ppm liquid composition of clothianidin.
Female Musca domestica imagoes (ten flies) of a sensitive strain kept without water for 3˜4 hours were anesthetized and lightly fixed to a pressure sensitive adhesive sheet which was cut into strips. After the test insects came out from the anesthetic, 1 μL of the liquid composition (containing 0.05 μg of clothianidin) was released from an injection needle attached to a micro dropper so that the test insects inhaled the composition.

With CN/C(=N\[N+](=O)[O-])NCc1cnc(Cl)s1 [clothianidin, (E)-1-(2-chloro-1,3-thiazol-5-ylmethyl)-3-methyl-2-nitroguanidine] as the compound, how does the “insecticidal effect (flies dead)” value read?
The value was “all flies were dead”.

— patent publication US20010046986A1, “Method for controlling flies” (priority 2000, published 2001)
